Measured values published in ChEMBL document CHEMBL5291721, “A preclinical secondary pharmacology resource illuminates target-adverse drug reaction associations of marketed drugs” (Nat Commun, 2023).
*1 amine or outer side, *2 acyl side, *3 side chain or, on linkers, in order; H or OH if unused. Where a SMILES comes first, the peptide text is derived from it. Bridges are numbered along the chain shown (N, C = ends). [ ]: non-standard residue; d: D form. The star is where a group is joined. hTyr(3S-OH,4S-OH,3'-OSO3H) = N[C@H](C(=O)O)[C@H](O)[C@@H](O)c1ccc(O)c(OS(=O)(=O)O)c1; Orn(4R-OH,5R-OH) = O=C([C@H](C[C@@H](O)[C@@H](O)N[*:3])N[*:1])[*:2]; Pro(3S-OH,4S-Me) = C[C@H]1CN[C@H](C(=O)O)[C@H]1O; X1 = CCCCCOc1ccc(-c2cc(-c3ccc(C(=O)*)cc3)no2)cc1; Gln(3R-OH) = NC(=O)C[C@@H](O)[C@H](N)C(=O)O; Hyp = O=C(O)[C@@H]1C[C@@H](O)CN1

Assays:
[1] = target: T1, Androgen receptor (Homo sapiens, UniProt P10275)
T1 sequence (P10275 whole entry): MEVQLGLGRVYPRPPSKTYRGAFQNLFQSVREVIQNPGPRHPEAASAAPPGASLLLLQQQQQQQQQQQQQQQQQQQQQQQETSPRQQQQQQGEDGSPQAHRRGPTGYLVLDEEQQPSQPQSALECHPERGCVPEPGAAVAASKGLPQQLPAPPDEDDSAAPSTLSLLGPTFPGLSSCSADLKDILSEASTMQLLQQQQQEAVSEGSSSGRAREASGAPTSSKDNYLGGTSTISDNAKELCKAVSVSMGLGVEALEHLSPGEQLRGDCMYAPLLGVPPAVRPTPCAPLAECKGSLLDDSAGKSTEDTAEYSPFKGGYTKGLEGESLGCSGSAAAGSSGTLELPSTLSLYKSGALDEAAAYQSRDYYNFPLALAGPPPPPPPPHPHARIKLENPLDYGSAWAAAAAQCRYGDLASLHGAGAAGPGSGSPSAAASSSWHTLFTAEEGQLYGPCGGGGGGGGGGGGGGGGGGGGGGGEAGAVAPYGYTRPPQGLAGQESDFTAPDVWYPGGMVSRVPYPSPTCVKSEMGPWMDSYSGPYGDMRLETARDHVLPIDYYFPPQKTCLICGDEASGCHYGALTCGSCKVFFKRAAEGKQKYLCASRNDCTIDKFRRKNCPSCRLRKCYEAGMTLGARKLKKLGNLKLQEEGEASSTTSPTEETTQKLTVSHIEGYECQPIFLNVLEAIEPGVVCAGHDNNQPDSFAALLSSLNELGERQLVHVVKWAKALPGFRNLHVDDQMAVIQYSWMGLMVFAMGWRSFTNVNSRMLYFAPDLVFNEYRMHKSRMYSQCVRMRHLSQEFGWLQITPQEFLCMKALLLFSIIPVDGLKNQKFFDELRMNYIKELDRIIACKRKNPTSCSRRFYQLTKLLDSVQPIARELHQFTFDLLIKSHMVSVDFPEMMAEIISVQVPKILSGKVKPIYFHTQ

[2] = target: 5-hydroxytryptamine receptor 2A (Homo sapiens, UniProt P28223); assay type: functional, cell-based
Sequence of 5-hydroxytryptamine receptor 2A (P28223 whole entry): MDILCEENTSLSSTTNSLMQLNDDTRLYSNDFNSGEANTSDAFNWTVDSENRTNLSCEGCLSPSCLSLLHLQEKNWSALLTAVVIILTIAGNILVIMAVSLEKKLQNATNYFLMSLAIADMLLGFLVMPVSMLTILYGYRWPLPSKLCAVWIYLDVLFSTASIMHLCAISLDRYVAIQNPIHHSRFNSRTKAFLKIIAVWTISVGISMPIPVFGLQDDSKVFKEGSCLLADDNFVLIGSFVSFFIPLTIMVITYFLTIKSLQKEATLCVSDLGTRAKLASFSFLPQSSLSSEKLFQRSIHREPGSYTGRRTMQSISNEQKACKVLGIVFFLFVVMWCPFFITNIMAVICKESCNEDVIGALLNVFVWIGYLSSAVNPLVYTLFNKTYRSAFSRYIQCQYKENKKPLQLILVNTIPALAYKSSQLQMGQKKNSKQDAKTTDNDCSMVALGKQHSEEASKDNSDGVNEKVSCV

[3] = target: 5-hydroxytryptamine receptor 6 (Homo sapiens, UniProt P50406)
[4] = target: T2, Peroxisome proliferator-activated receptor gamma (Homo sapiens, UniProt P37231); assay type: functional
T2 sequence (P37231 whole entry): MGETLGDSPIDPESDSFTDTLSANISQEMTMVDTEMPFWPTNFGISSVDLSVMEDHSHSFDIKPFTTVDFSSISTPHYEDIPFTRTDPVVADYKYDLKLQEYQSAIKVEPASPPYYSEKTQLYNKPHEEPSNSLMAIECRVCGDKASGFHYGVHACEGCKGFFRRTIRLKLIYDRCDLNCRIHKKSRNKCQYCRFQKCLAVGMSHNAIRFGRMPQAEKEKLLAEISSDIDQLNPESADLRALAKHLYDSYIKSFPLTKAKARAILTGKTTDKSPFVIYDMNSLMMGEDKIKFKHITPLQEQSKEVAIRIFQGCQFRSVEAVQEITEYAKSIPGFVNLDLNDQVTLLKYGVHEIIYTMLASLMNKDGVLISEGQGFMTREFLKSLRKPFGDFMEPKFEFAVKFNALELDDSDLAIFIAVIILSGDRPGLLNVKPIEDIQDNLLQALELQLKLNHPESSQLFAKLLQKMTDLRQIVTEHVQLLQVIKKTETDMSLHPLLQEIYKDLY

[5] = target: Gamma-aminobutyric acid receptor subunit alpha-1/alpha-2/beta-2/gamma-2 (Homo sapiens, UniProt P14867+P18507+P47869+P47870); assay type: functional, cell-based
Sequence of Gamma-aminobutyric acid receptor subunit alpha-1/alpha-2/beta-2/gamma-2 (P14867 whole entry): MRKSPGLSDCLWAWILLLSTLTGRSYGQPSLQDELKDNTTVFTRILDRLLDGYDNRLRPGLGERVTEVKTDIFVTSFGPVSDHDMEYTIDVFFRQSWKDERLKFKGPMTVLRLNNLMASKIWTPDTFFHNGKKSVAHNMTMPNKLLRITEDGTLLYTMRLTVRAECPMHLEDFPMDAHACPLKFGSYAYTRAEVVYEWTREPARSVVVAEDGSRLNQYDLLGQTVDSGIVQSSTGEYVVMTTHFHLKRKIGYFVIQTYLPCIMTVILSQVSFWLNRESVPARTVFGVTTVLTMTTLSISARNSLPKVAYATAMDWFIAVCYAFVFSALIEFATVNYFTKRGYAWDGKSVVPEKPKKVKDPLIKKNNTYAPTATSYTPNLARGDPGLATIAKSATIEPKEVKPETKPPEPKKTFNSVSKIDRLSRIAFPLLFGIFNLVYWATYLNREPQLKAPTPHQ
Sequence of Gamma-aminobutyric acid receptor subunit alpha-1/alpha-2/beta-2/gamma-2 (P47870 whole entry): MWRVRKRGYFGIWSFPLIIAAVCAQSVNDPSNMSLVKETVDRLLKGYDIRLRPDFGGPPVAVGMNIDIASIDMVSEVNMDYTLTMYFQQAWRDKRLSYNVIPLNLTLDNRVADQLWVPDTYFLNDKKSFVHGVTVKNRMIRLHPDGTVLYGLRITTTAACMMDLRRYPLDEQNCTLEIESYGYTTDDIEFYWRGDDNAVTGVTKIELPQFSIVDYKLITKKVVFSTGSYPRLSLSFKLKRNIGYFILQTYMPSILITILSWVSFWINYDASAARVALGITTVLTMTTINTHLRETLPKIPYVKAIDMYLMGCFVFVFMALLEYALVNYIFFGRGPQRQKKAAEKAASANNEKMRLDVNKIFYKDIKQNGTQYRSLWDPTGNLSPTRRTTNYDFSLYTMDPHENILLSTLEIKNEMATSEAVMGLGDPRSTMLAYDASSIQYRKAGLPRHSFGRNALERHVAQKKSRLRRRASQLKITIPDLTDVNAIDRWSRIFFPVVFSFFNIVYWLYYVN
Sequence of Gamma-aminobutyric acid receptor subunit alpha-1/alpha-2/beta-2/gamma-2 (P18507 whole entry): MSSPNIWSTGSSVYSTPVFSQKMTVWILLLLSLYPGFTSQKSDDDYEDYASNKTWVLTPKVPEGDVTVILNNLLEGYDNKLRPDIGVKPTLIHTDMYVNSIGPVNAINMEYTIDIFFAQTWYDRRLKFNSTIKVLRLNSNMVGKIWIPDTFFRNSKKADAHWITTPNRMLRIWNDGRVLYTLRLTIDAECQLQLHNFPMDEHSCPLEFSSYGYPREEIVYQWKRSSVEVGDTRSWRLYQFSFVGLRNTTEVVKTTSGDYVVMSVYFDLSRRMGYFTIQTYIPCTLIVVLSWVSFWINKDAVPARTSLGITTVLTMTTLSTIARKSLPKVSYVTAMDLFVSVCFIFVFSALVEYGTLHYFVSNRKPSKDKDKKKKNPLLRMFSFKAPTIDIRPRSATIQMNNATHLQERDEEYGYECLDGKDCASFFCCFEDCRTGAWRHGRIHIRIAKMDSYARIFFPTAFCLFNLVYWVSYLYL
Sequence of Gamma-aminobutyric acid receptor subunit alpha-1/alpha-2/beta-2/gamma-2 (P47869 whole entry): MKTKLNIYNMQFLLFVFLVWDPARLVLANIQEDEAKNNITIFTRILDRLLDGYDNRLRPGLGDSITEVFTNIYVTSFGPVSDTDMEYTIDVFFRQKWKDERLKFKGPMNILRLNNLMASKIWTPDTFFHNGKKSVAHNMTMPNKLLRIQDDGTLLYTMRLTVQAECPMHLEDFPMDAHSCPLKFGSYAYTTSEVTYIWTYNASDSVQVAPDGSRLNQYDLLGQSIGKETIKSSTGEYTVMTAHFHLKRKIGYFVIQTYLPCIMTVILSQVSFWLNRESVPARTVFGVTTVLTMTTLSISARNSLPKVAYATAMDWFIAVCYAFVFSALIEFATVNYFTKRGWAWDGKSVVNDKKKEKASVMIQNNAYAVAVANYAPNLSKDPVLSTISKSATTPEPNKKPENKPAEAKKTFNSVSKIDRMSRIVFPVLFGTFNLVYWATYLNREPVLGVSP

[6] = target: T3, Gastric inhibitory polypeptide receptor (Homo sapiens, UniProt P48546)
T3 sequence (P48546 whole entry): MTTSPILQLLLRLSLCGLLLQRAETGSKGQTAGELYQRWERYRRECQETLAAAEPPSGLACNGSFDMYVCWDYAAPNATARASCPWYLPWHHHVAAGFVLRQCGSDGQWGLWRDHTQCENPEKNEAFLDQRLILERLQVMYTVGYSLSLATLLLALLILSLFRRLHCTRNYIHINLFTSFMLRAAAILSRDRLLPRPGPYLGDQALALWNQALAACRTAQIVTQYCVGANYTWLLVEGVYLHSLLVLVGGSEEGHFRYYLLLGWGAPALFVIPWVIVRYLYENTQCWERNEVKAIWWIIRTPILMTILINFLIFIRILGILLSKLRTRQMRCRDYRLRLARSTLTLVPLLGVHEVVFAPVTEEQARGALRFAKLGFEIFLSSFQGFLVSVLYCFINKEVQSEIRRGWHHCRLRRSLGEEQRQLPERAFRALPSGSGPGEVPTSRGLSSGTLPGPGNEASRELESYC

[7] = target: Estrogen receptor beta (Homo sapiens, UniProt Q92731)
Sequence of Estrogen receptor beta (Q92731 whole entry): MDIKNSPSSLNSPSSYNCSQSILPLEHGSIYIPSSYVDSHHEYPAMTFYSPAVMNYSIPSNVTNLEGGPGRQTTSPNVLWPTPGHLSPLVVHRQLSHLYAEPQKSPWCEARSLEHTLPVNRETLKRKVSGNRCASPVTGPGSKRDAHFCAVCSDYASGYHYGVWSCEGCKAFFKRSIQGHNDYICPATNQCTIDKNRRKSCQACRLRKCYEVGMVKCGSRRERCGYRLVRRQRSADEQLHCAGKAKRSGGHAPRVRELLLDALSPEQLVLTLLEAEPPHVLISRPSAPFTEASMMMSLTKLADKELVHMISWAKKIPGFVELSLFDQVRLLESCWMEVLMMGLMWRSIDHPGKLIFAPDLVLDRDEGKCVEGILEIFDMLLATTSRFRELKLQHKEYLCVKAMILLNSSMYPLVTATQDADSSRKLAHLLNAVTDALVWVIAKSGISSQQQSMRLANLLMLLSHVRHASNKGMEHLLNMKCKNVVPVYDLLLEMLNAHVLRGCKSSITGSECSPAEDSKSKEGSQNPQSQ

[8] = target: Histamine H2 receptor (Homo sapiens, UniProt P25021)
Sequence of Histamine H2 receptor (P25021 whole entry): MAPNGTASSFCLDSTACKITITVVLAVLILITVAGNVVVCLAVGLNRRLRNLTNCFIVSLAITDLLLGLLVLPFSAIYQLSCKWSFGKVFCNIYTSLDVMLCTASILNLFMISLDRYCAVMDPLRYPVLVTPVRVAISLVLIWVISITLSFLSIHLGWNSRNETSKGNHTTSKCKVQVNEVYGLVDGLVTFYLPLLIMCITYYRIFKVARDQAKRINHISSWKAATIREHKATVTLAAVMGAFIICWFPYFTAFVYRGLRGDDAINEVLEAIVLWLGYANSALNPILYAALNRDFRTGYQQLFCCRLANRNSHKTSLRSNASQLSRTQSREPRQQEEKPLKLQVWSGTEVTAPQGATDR

[9] = target: Epidermal growth factor receptor (Homo sapiens, UniProt P00533); assay type: functional
Sequence of Epidermal growth factor receptor (P00533 whole entry): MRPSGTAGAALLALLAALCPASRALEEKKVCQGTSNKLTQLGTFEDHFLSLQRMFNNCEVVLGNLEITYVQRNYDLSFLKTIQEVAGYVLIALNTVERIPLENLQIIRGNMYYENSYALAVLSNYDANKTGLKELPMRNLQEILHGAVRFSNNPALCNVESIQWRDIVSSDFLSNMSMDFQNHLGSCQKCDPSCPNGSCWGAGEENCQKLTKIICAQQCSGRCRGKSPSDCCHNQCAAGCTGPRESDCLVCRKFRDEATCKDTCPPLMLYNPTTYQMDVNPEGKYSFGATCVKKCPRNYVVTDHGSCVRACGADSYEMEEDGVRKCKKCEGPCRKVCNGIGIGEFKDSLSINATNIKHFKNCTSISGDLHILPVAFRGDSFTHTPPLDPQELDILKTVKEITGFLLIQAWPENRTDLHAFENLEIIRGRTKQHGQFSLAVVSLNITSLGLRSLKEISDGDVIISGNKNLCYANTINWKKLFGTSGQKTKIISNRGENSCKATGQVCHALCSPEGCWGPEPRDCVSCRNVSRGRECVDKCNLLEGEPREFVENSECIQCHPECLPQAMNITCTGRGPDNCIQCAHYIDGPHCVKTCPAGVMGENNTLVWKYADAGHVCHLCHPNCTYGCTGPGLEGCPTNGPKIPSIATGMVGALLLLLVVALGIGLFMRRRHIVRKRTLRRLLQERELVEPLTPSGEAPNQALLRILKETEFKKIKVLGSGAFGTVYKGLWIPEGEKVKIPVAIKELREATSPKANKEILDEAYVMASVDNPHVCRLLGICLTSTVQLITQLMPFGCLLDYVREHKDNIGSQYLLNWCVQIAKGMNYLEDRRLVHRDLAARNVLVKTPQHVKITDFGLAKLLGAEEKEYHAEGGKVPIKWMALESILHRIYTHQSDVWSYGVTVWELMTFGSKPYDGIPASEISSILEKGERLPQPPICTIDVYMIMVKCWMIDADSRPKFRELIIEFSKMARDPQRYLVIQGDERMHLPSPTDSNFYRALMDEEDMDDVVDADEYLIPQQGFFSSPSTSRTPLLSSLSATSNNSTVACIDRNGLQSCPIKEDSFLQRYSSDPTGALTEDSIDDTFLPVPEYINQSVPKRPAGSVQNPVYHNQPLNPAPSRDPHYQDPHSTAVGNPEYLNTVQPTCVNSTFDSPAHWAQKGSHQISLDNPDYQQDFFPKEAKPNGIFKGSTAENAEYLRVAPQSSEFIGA

[10] = target: D(1A) dopamine receptor (Homo sapiens, UniProt P21728); assay type: functional, cell-based
Sequence of D(1A) dopamine receptor (P21728 whole entry): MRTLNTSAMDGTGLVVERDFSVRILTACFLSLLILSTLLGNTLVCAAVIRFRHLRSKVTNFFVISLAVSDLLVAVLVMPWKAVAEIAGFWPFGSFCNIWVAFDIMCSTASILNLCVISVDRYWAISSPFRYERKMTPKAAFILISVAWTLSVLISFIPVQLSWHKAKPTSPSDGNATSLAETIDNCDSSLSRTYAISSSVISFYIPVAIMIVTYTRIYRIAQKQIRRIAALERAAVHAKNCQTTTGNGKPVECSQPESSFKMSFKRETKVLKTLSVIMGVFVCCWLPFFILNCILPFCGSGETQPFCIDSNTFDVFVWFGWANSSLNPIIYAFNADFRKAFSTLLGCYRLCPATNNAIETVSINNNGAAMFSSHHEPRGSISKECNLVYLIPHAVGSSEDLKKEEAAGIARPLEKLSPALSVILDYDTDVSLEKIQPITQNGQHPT
Note: assay procedure not described here.

Compound	AC50 [1] [µM]	AC50 [2] [µM]	AC50 [5] [µM]	AC50 [6] [µM]	also measured
Cc1cc2c(OCC(O)CNC(C)C)cccc2[nH]1 (configuration not stated) [MEPINDOLOL]	> 30	–	–	–	–
CC(=O)/N=c1/sc(S(N)(=O)=O)nn1C [METHAZOLAMIDE]	–	> 10	–	–	–
CCCCCOc1ccc(-c2cc(-c3ccc(C(=O)N[C@H]4C[C@@H](O)[C@@H](O)NC(=O)[C@@H]5[C@@H](O)[C@@H](C)CN5C(=O)[C@H]([C@H](O)CC(N)=O)NC(=O)[C@H]([C@H](O)[C@@H](O)c5ccc(O)c(OS(=O)(=O)O)c5)NC(=O)[C@@H]5C[C@@H](O)CN5C(=O)[C@H]([C@@H](C)O)NC4=O)cc3)no2)cc1 [MICAFUNGIN] (X1-[Orn(4R-OH,5R-OH)]T[Hyp][hTyr(3S-OH,4S-OH,3'-OSO3H)][Gln(3R-OH)][Pro(3S-OH,4S-Me)]; lactam 1-C)	> 30	–	–	–	–
CCOc1ccc2ccccc2c1C(=O)N[C@@H]1C(=O)N2[C@@H]1SC(C)(C)[C@@H]2C(=O)O [NAFCILLIN]	> 30	–	–	–	–
CC(=O)Oc1ccccc1C(=O)Nc1ncc([N+](=O)[O-])s1 [NITAZOXANIDE]	–	> 30	–	–	–
CNCCC=C1c2ccccc2CCc2ccccc21 [NORTRIPTYLINE]	–	–	–	–	AC50 [3]: 0.256 µM
CN(C)c1cc(CNCC(C)(C)C)c(O)c2c1C[C@H]1C[C@H]3[C@H](N(C)C)C(O)=C(C(N)=O)C(=O)[C@@]3(O)C(O)=C1C2=O [OMADACYCLINE]	> 30	> 30	> 30	–	AC50 [4]: > 30 µM
COc1ccnc(C[S+]([O-])c2nc3ccc(OC(F)F)cc3[nH]2)c1OC (configuration not stated) [PANTOPRAZOLE]	–	–	–	> 30	AC50 [7]: > 30 µM; AC50 [8]: > 10 µM
CNC[C@H](O)c1cccc(O)c1 [PHENYLEPHRINE]	–	> 30	–	> 30	AC50 [3]: > 10 µM; AC50 [7]: > 30 µM; AC50 [8]: > 10 µM
CC(C)C[C@H](CN)CC(=O)O [PREGABALIN]	–	> 30	> 30	> 30	AC50 [9]: > 30 µM; AC50 [10]: > 30 µM; AC50 [4]: > 30 µM; AC50 [7]: > 30 µM
CC(C)[N+](C)(CCOC(=O)C1c2ccccc2Oc2ccccc21)C(C)C [PROPANTHELINE]	> 30	–	–	–	–
CNC(=O)c1cc(Oc2ccc(NC(=O)Nc3ccc(Cl)c(C(F)(F)F)c3)c(F)c2)ccn1 [REGORAFENIB]	> 30	> 30	–	–	–
CCOc1cc(CC(=O)N[C@@H](CC(C)C)c2ccccc2N2CCCCC2)ccc1C(=O)O [REPAGLINIDE]	–	> 30	> 30	–	AC50 [4]: > 30 µM
CN(C)C(=O)c1nc(CNC(=O)CN)n(-c2ccc(Cl)cc2C(=O)c2ccccc2Cl)n1 [RILMAZAFONE]	> 30	–	–	–	–
CC[C@H]1OC(=O)[C@H](C)[C@@H](O[C@H]2C[C@@](C)(OC)[C@@H](O)[C@H](C)O2)[C@H](C)[C@@H](O[C@@H]2O[C@H](C)C[C@H](N(C)C)[C@H]2O)[C@](C)(O)C[C@@H](C)/C(=N\OCOCCOC)[C@H](C)[C@@H](O)[C@]1(C)O [ROXITHROMYCIN]	–	–	> 30	–	AC50 [9]: > 30 µM; AC50 [10]: > 30 µM; AC50 [4]: > 30 µM
CC(=O)S[C@@H]1CC2=CC(=O)CC[C@]2(C)[C@H]2CC[C@@]3(C)[C@@H](CC[C@@]34CCC(=O)O4)[C@H]12 [SPIRONOLACTONE]	–	–	> 30	> 30	AC50 [9]: > 30 µM; AC50 [10]: > 30 µM; AC50 [4]: > 30 µM; AC50 [8]: > 10 µM
CCCCNc1ccc(C(=O)OCCN(C)C)cc1 [TETRACAINE]	–	–	–	> 30	AC50 [3]: > 10 µM; AC50 [8]: 4.08 µM
CN1CCN(CCCN2c3ccccc3Sc3ccc(S(=O)(=O)N(C)C)cc32)CC1 [THIOPROPERAZINE]	–	> 30	> 30	–	–
CC1(C)O[C@@H]2[C@@H](CO[C@@]3(COS(N)(=O)=O)OC(C)(C)O[C@@H]23)O1 [TOPIRAMATE]	–	–	–	> 30	AC50 [3]: > 10 µM; AC50 [7]: > 30 µM; AC50 [8]: > 10 µM
Cc1cc(CC(=O)O)n(C)c1C(=O)c1ccc(Cl)cc1 [ZOMEPIRAC]	–	> 30	–	–	–
